Test results from patent US10131670B2, “Bicyclic heteroaryl derivatives as CFTR potentiators” (CYSTIC FIBROSIS FOUNDATION THERAPEUTICS, INC., priority 2016, dated 2018).
Where a name gives a salt, the structure may show the parent alone.

Assays:
F508del V470 CFTR = F508del V470 CFTR (Homo sapiens, UniProt P13569, DEL508-508); test: FRT Ion Flux Assay of F508del CFTR Potentiation; format: cell-based; conditions: FRT cells expressing F508del V470 CFTR and halide-sensitive YFP, forskolin 20 uM, 30 min
F508del V470 CFTR, sequence (P13569 with tags, fused parts or gaps DEL508-508): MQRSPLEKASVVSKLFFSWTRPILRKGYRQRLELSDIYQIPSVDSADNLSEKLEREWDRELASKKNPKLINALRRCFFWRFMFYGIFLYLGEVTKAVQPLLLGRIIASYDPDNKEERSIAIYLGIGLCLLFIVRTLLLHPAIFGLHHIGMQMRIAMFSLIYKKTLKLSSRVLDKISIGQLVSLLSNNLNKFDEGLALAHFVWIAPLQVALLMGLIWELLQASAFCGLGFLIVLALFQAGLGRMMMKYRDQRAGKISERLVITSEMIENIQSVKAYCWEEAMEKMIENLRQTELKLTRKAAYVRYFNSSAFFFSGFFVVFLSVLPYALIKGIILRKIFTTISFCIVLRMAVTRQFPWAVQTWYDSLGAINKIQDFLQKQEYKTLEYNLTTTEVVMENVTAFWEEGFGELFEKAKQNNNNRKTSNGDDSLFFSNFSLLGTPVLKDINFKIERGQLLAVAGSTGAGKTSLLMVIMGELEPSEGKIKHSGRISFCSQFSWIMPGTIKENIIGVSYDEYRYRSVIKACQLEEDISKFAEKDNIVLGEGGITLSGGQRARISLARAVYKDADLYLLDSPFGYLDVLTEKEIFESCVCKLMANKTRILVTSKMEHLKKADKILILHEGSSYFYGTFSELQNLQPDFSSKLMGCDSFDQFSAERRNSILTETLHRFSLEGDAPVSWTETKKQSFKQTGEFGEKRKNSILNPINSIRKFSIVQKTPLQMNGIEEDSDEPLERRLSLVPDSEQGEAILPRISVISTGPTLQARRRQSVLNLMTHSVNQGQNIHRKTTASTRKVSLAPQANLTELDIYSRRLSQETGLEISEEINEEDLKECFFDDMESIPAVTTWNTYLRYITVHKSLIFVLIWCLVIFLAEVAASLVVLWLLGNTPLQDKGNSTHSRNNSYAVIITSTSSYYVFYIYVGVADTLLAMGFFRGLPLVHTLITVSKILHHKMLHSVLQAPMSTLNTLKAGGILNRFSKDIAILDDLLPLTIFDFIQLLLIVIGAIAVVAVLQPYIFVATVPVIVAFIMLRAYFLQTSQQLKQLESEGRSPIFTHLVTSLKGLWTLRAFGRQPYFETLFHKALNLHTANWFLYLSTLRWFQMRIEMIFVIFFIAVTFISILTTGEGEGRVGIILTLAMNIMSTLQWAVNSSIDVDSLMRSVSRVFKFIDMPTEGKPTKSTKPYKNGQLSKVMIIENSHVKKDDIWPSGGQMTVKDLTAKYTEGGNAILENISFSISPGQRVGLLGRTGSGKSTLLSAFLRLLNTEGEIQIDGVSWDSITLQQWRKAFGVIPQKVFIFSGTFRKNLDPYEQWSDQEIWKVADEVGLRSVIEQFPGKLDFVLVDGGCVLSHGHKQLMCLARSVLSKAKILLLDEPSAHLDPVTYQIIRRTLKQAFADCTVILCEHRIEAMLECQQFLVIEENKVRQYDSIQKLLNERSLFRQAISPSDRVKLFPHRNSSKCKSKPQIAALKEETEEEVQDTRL
Method: FRT Ion Flux Assay of F508del CFTR Potentiation
Fischer rat thyroid (FRT) cell lines stably expressing recombinant F508del V470 CFTR and halide-sensitive yellow fluorescent protein (Pedemonte et al., J. Clin. Invest. 115(9) 2564-71 (2005)) were seeded at 25,000 cells/well in 50 uL/well of culture medium into black-walled, clear bottom tissue-culture-treated 384-well plates (Corning, cat. no. 3712). After one day, the cells were pre-incubated at 27° C./5% CO2 for 16-24 hours. The cells were then washed with dPBS and treated with forskolin (20 uM) and test compound for 30 min by addition of 20 uL of compound dilution buffer (dPBS containing forskolin and test compound). Plates were loaded into FLIPR384 fluorescence imaging plate reader (Molecular Devices). After an initial fluorescence reading, iodide buffer (25 uL) (composition (in mM): 137 NaI, 1.5 K2PO4, 8.1 NaH2PO4, 2.7 KCl, 0.5 MgCl2, 1 CaCl2) was added and a second fluorescence reading was made after approximately 21 seconds. Data treatment involved division of the second fluorescence reading by the initial fluorescence reading, then scaling of the resulting normalized endpoint fluorescence with respect to the responses for DMSO (0%) and a positive control potentiator (100%).

CFTR = CFTR (Homo sapiens, UniProt P13569); test: Ussing Chamber Electrophysiology Assay of CFTR Potentiation in CF Bronchial Epithelial Cells; format: cell-based; conditions: primary CF hBE cells, short-circuit current, scaled to DMSO (0%) and positive control potentiator (100%)
Excerpt: Ussing Chamber Electrophysiology Assay of CFTR Potentiation in CF Bronchial Epithelial Cells
Primary cystic fibrosis human bronchial epithelial (CF hBE) cells were expanded and cultured according to published methods (Neuberger et al., Ch. 4 of Cystic Fibrosis, Methods in Molecular Biology vol. 741, pp. 39-54 (2011)). Well-differentiated cells (>30 days at air/liquid interface) on Snapwell filters (Corning Costar, cat. no. 3801) were mounted in Ussing chambers (Physiologic Instruments, Inc., San Diego, Calif.). F508del/F508del cultures were assayed at 27° C. and G551D/F508del cells were assayed at 35° C. HEPES buffered physiological saline (composition (in mM): 137 NaCl, 4 KCl, 1 MgCl2, 1.8 CaCl2, 10 HEPES Na) was used in both apical and basolateral chambers. Chambers were bubbled with air to promote mixing and the voltage was clamped to zero. Amiloride (30 uM), forskolin (10 uM), test compound (4 increasing concentrations), and CFTRinh-172 (20 uM) were added sequentially with 20-25 minutes between additions. Short-circuit currents were acquired and analyzed using LabScribe2. Test compound responses were scaled relative to responses for DMSO (0%) and the maximal response of a positive control potentiator (100%).

Row | SMILES | EC50 (F508del V470 CFTR) | EC50 (CFTR)
1 | CCC(c1cn(-c2ccccc2F)nn1)c1cc(-c2cnc(C(F)(F)F)nc2)c2c(N)ncnn12 (centres unmarked) [Example 82, 7-{1-[1-(2-fluorophenyl)-1H-1,2,3-triazol-4-yl]propyl}-5-[2-(trifluoromethyl)pyrimidin-5-yl]pyrrolo[2,1-f][1,2,4]triazin-4-amine] | 5.83 nM | 4.93 nM
2 | CC(c1cn(-c2ccccc2F)nn1)c1c(C#N)c(-c2cnc(C(F)(F)F)nc2)c2c(N)ncnn12 (single isomer, unassigned) [Example 2, 4-amino-7-{1-[1-(2-fluorophenyl)-1H-1,2,3-triazol-4-yl]ethyl}-5-[2-(trifluoromethyl)pyrimidin-5-yl]pyrrolo[2,1-f][1,2,4]triazine-6-carbonitrile] | 9.14 nM | 11.2 nM
3 | CCC(c1cn(-c2ccccc2F)nn1)c1cc(-c2cncnc2OC)c2c(N)ncnn12 (centres unmarked) [Example 83, 7-{1-[1-(2-fluorophenyl)-1H-1,2,3-triazol-4-yl]propyl}-5-(4-methoxypyrimidin-5-yl)pyrrolo[2,1-f][1,2,4]triazin-4-amine] | 18.4 nM | 16 nM
4 | CC(c1cn(-c2cc(F)ccc2F)nn1)c1cc(-c2cnc(C(F)(F)F)nc2)c2c(N)ncnn12 (single isomer, unassigned) [Example 98, 7-{1-[1-(2,5-difluorophenyl)-1H-1,2,3-triazol-4-yl]ethyl}-5-[2-(trifluoromethyl)pyrimidin-5-yl]pyrrolo[2,1-f][1,2,4]triazin-4-amine] | 26 nM | 19.8 nM
5 | CC(c1cn(-c2ccc(F)cc2F)nn1)c1cc(-c2cnc(C(F)(F)F)nc2)c2c(N)ncnn12 (single isomer, unassigned) [Example 56, 7-{1-[1-(2,4-difluorophenyl)-1H-1,2,3-triazol-4-yl]ethyl}-5-[2-(trifluoromethyl)pyrimidin-5-yl]pyrrolo[2,1-f][1,2,4]triazin-4-amine] | 8.76 nM | 7.48 nM
6 | CCC(c1cn(-c2ccccc2F)nn1)c1cc(-c2cncnc2OC)c2c(N)ncnn12 (single isomer, unassigned) [Example 65, 7-{1-[1-(2-fluorophenyl)-1H-1,2,3-triazol-4-yl]propyl}-5-(4-methoxypyrimidin-5-yl)pyrrolo[2,1-f][1,2,4]triazin-4-amine] | 14 nM | 10.4 nM
7 | CCC(c1cn(-c2ccccc2F)nn1)c1cc(-c2cnc(C(F)(F)F)nc2)c2c(N)ncnn12 (single isomer, unassigned) [Example 58, 7-{1-[1-(2-fluorophenyl)-1H-1,2,3-triazol-4-yl]propyl}-5-[2-(trifluoromethyl)pyrimidin-5-yl]pyrrolo[2,1-f][1,2,4]triazin-4-amine] | 91.2 nM | 36.6 nM
8 | CC(O)(c1cn(-c2ccccc2F)nn1)c1cc(-c2cnc(C(F)(F)F)nc2)c2c(N)ncnn12 (single isomer, unassigned) [Example 68, 1-{4-amino-5-[2-(trifluoromethyl)pyrimidin-5-yl]pyrrolo[2,1-f][1,2,4]triazin-7-yl}-1-[1-(2-fluorophenyl)-1H-1,2,3-triazol-4-yl]ethanol] | 2310 nM | 
9 | N#Cc1c(-c2cnc(C(F)(F)F)nc2)c2c(N)ncnn2c1Cc1cn(-c2ccccc2F)nn1 [Example 22, 4-amino-7-{[1-(2-fluorophenyl)-1H-1,2,3-triazol-4-yl]methyl}-5-[2-(trifluoromethyl)pyrimidin-5-yl]pyrrolo[2,1-f][1,2,4]triazine-6-carbonitrile] | 23.3 nM | 27.1 nM
10 | CCC(c1cn(-c2ccc(F)c(F)c2)nn1)c1c(C#N)c(-c2cnc(C(F)(F)F)nc2)c2c(N)ncnn12 (single isomer, unassigned) [Example 9, 4-amino-7-{1-[1-(3,4-difluorophenyl)-1H-1,2,3-triazol-4-yl]propyl}-5-[2-(trifluoromethyl)pyrimidin-5-yl]pyrrolo[2,1-f][1,2,4]triazine-6-carbonitrile] | 41.2 nM | 28.4 nM
11 | CC(c1cnn(-c2ccccc2F)c1)c1c(C#N)c(-c2cnc(C(F)(F)F)nc2)c2c(N)ncnn12 (single isomer, unassigned) [Example 13, 4-amino-7-{1-[1-(2-fluorophenyl)-1H-pyrazol-4-yl]ethyl}-5-[2-(trifluoromethyl)pyrimidin-5-yl]pyrrolo[2,1-f][1,2,4]triazine-6-carbonitrile] | 0.62 nM | 0.42 nM
12 | CCC(c1cn(-c2ccccc2F)nn1)c1c(C#N)c(-c2cnc(C(F)(F)F)nc2)c2c(N)ncnn12 (single isomer, unassigned) [Example 5, 4-amino-7-{1-[1-(2-fluorophenyl)-1H-1,2,3-triazol-4-yl]propyl}-5-[2-(trifluoromethyl)pyrimidin-5-yl]pyrrolo[2,1-f][1,2,4]triazine-6-carbonitrile] | 2.13 nM | 3.02 nM
13 | Nc1ncnn2c(Cc3cn(-c4ccccc4F)nn3)nc(-c3ccc(Cl)cc3)c12 [Example 93, 5-(4-Chlorophenyl)-7-{[1-(2-fluorophenyl)-1H-1,2,3-triazol-4-yl]methyl}imidazo[5,1-f][1,2,4]triazin-4-amine trifluoroacetate] | 54.4 nM | 116 nM
14 | CC(c1cn(-c2ccc(F)cc2F)nn1)c1cc(-c2cnc(C(F)(F)F)nc2)c2c(N)ncnn12 (single isomer, unassigned) [Example 55, 7-{1-[1-(2,4-difluorophenyl)-1H-1,2,3-triazol-4-yl]ethyl}-5-[2-(trifluoromethyl)pyrimidin-5-yl]pyrrolo[2,1-f][1,2,4]triazin-4-amine] | 266 nM | 225 nM
15 | CCC(c1cn(-c2ccc(F)cc2F)nn1)c1cc(-c2cnc(C(F)(F)F)nc2)c2c(N)ncnn12 (single isomer, unassigned) [Example 59, 7-{1-[1-(2,4-difluorophenyl)-1H-1,2,3-triazol-4-yl]propyl}-5-[2-(trifluoromethyl)pyrimidin-5-yl]pyrrolo[2,1-f][1,2,4]triazin-4-amine] | 249 nM | 115 nM
16 | CCC(c1cnn(-c2ccccc2F)c1)c1c(C#N)c(-c2cnc(C(F)(F)F)nc2)c2c(N)ncnn12 (single isomer, unassigned) [Example 14, 4-amino-7-{1-[1-(2-fluorophenyl)-1H-pyrazol-4-yl]propyl}-5-[2-(trifluoromethyl)pyrimidin-5-yl]pyrrolo[2,1-f][1,2,4]triazine-6-carbonitrile] | 6.59 nM | 2 nM
17 | N#Cc1c(-c2cnc(C(F)F)nc2)c2c(N)ncnn2c1Cc1cnn(-c2ccccc2F)c1 [Example 31, 4-amino-5-[2-(difluoromethyl)pyrimidin-5-yl]-7-{[1-(2-fluorophenyl)-1H-pyrazol-4-yl]methyl}pyrrolo[2,1-f][1,2,4]triazine-6-carbonitrile] | 0.41 nM | 1.05 nM
18 | CCC(c1cn(-c2ccccc2)nn1)n1nc(-c2cnc(C(F)(F)F)nc2)c2c(N)ncnc21 (single isomer, unassigned) [Example 95, 1-[1-(1-phenyl-1H-1,2,3-triazol-4-yl)propyl]-3-[2-(trifluoromethyl)pyrimidin-5-yl]-1H-pyrazolo[3,4-d]pyrimidin-4-amine] | 349 nM | 188 nM
19 | CC(c1cnn(-c2ccccc2F)c1)c1c(C#N)c(-c2cnc(C(F)F)nc2)c2c(N)ncnn12 (single isomer, unassigned) [Example 97, 4-amino-5-[2-(difluoromethyl)pyrimidin-5-yl]-7-{1-[1-(2-fluorophenyl)-1H-pyrazol-4-yl]ethyl}pyrrolo[2,1-f][1,2,4]triazine-6-carbonitrile] |  | 3.87 nM
20 | CCC(c1cn(-c2ccccc2F)nn1)c1c(C#N)c(-c2cnc(C(F)(F)F)nc2)c2c(N)ncnn12 (centres unmarked) [Example 25, 4-amino-7-{1-[1-(2-fluorophenyl)-1H-1,2,3-triazol-4-yl]propyl}-5-[2-(trifluoromethyl)pyrimidin-5-yl]pyrrolo[2,1-f][1,2,4]triazine-6-carbonitrile] |  | 7.86 nM
21 | CC(c1cnn(-c2ccccc2F)c1)c1c(C#N)c(-c2cnc(C(F)F)nc2)c2c(N)ncnn12 (single isomer, unassigned) [Example 96, 4-amino-5-[2-(difluoromethyl)pyrimidin-5-yl]-7-{1-[1-(2-fluorophenyl)-1H-pyrazol-4-yl]ethyl}pyrrolo[2,1-f][1,2,4]triazine-6-carbonitrile] |  | 0.4 nM
